Converted amounts (≈) assume the structure as drawn.
Key:
[1] = Permeability of the compound by PAMPA; format: ADME
[2] = system: adenain (human adenovirus serotype 5); test: Inhibition of human adenovirus serotype 5 adenain protease expressed in Escherichia coli […] (DE3) using Ac-WLRGG*ARC(PT14)-NH2 as substrate by FLT assay
[3] = system: adenain (human adenovirus serotype 8); test: Inhibition of human adenovirus serotype 8 adenain protease expressed in Escherichia coli […] (DE3) using Ac-WLRGG*ARC(PT14)-NH2 as substrate by FLT assay
[4] = Equilibrium solubility of the compound at pH 6.8; format: physicochemical; details: buffer
Cathepsin K = biological target: T1, Cathepsin K (Homo sapiens, UniProt P43235)
T1 sequence (P43235 whole entry): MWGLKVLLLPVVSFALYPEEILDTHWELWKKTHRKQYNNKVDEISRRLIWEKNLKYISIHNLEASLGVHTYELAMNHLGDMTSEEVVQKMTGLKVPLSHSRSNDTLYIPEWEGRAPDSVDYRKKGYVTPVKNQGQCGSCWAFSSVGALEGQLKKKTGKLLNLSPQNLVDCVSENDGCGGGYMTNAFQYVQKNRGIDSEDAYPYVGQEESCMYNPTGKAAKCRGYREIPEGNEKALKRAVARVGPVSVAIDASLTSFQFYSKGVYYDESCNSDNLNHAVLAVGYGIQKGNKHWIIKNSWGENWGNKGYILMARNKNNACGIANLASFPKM
Description: Inhibition of human recombinant Cathepsin K using fluorogenic peptide substrate

Dipeptidyl peptidase 1 = Dipeptidyl peptidase 1 (Homo sapiens, UniProt P53634)
Sequence of Dipeptidyl peptidase 1 (P53634 25-134 limits assumed): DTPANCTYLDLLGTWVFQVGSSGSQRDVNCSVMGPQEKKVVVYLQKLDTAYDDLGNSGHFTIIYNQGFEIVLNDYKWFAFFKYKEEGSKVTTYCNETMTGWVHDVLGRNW
Sequence of Dipeptidyl peptidase 1 (P53634 231-394 limits assumed): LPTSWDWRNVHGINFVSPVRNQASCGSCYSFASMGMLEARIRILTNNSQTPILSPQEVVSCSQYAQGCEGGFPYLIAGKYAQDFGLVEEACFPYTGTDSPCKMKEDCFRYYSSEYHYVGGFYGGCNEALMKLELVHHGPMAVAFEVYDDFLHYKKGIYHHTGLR
Sequence of Dipeptidyl peptidase 1 (P53634 395-463 limits assumed): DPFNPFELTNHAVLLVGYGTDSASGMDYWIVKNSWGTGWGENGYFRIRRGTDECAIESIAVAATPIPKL
Description: Inhibition of human recombinant Cathepsin C using fluorogenic peptide substrate

Procathepsin L = Procathepsin L (Homo sapiens, UniProt P07711)
Sequence of Procathepsin L (P07711 whole entry): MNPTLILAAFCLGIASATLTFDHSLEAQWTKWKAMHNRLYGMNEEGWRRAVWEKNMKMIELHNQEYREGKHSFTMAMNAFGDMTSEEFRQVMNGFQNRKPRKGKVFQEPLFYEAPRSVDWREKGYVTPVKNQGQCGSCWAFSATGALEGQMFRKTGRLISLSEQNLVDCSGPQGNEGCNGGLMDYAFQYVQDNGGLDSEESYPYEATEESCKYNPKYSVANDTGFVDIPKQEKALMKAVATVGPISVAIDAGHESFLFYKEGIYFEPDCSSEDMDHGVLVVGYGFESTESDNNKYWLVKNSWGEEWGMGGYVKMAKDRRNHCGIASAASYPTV
Description: Inhibition of human recombinant Cathepsin L using fluorogenic peptide substrate

Cathepsin S = Cathepsin S (Homo sapiens, UniProt P25774)
Sequence of Cathepsin S (P25774 whole entry): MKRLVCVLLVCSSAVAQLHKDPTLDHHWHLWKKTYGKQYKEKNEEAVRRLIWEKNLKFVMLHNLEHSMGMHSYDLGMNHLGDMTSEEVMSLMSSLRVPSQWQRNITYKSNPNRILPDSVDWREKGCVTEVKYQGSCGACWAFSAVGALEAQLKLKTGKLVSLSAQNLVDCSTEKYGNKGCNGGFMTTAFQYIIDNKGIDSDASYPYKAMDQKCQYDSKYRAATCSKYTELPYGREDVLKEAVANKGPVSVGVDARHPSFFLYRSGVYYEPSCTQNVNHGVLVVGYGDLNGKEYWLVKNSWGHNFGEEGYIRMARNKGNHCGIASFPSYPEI
Description: Inhibition of human recombinant Cathepsin S using fluorogenic peptide substrate

Cathepsin B = Cathepsin B (Homo sapiens, UniProt P07858)
Description: Inhibition of human recombinant Cathepsin B using fluorogenic peptide substrate

Human adenovirus 5 = test: Antiviral activity against human adenovirus 5 infected in HEK293 cells assessed as reduction in viral induced cytopathogenicity incubated for 5 days by Celltiter-Glo luminescent cell viability assay; format: functional, organism-based; details: Human mastadenovirus C, HEK293, 120 h

SMILES | logPm [1] | IC50 [2] [µM] | IC50 [3] [µM] | solubility thermodynamic [4] [µM] | IC50 (Cathepsin K) [µM] | IC50 (Dipeptidyl peptidase 1) [µM] | IC50 (Procathepsin L) [µM] | IC50 (Cathepsin S) [µM] | IC50 (Cathepsin B) [µM] | EC50 (Human adenovirus 5) [µM]
CS(=O)(=O)N[C@H](C(=O)N[C@@H](Cc1ccccc1)C(=O)NCC(=O)NCC#N)c1cccc(Cl)c1 | -5.6 | 0.03 | 0.04 | – | – | – | – | – | – | –
COc1ccc(C(=O)NCC(=O)NCC#N)cc1C(=O)Cc1cc(Cl)cc(Cl)c1 | – | 1.1 | 2.74 | – | – | – | – | – | – | –
COc1ccc(C(=O)NCC(=O)NCC#N)cc1C(=O)C(C)c1cc(Cl)cc(Cl)c1 (configuration not stated) | – | 0.31 | 0.95 | – | – | – | – | – | – | –
COc1ccc(C(=O)NCC(=O)NCC#N)cc1C(=O)C(C)(C)c1cc(Cl)cc(Cl)c1 | -5 | 0.03 | 0.04 | 50 (≈ 23.1 µg/mL) | > 100 | > 100 | > 100 | > 100 | > 100 | –
CN(C)CCOc1ccc(C(=O)NCC(=O)NCC#N)cc1C(=O)C(C)(C)c1cc(Cl)cc(Cl)c1 | -5.5 | 0.007 | 0.01 | > 1000 | > 100 | > 100 | 100 | > 100 | > 100 | –
COc1ccc(C(=O)NCc2ccnc(C#N)n2)cc1C(=O)C(C)(C)c1cc(Cl)cc(Cl)c1 | – | 0.0002 | 0.0006 | – | 9.5 | 66 | 5.6 | 1 | 8.1 | > 50
CN(C)CCOc1ccc(C(=O)NCc2ccnc(C#N)n2)cc1C(=O)C(C)(C)c1cc(Cl)cc(Cl)c1 | -4.2 | 0.0001 | 0.0001 | 490 (≈ 265 µg/mL) | 19 | 18 | > 11 | 24 | 81 | 3.9
COc1ccc(C(=O)NCC(=O)NC/C=C/S(C)(=O)=O)cc1C(=O)C(C)(C)c1cc(Cl)cc(Cl)c1 | -4.1 | 0.001 | 0.001 | – | > 100 | > 100 | > 100 | > 100 | > 100 | –
CC(C)(C)[C@H](NC(=O)Cc1cc(Cl)cc(Cl)c1)C(=O)NCC(=O)NC/C=C/S(C)(=O)=O | -5.6 | 0.01 | 0.01 | – | 95 | > 100 | > 100 | > 100 | > 100 | 4.5
CCN[C@H](C(=O)N[C@H](C(=O)NCC(=O)NC/C=C/S(C)(=O)=O)C(C)(C)C)c1cc(Cl)cc(Cl)c1 | – | < 0.001 | < 0.001 | – | 73 | > 100 | > 100 | > 100 | > 100 | 31
CC[C@H](C(=O)N[C@H]1CCN(CC(=O)NC/C=C/S(C)(=O)=O)C1=O)c1cc(Cl)cc(Cl)c1 | -5.5 | 0.002 | 0.004 | – | > 100 | > 100 | > 100 | > 100 | > 100 | 8.9
